In patent US10316371B2, “Screening methods for identifying specific Staphylococcus aureus inhibitors” (TRANA DISCOVERY, INC., priority 2011, dated 2019):
Converted amounts (≈) assume the structure as drawn. Like-named read-outs stand apart in the source and are kept apart here.

Key:
S. epidermidis MRSE 01 = assay: MIC; assay type: cell-based; conditions: Staphylococcus epidermidis; S. epidermidis MRSE 01; read-out: MIC
Method: (§1) The compounds were re-tested against other bacteria, including Staphylococcus epidermidis (ATCC 35984), Staphylococcus epidermidis (MRSE), E. faecium 134529, E. faecium 145494, […], E. faecium 161651, S. pneumoniae 49619, and S. pneumoniae 149389.
(§2) A series of compounds were evaluated for their activity against drug resistant S. aureus, including MSSA and MRSA strains.

E. faecium 134529 = assay: MIC; assay type: cell-based; conditions: Enterococcus faecium; E. faecium 134529; read-out: MIC
Method: as §1, §2

S. pneumoniae 49619 = assay: MIC; assay type: cell-based; conditions: Streptococcus pneumoniae; S. pneumoniae 49619; read-out: MIC
Method: as §1, §2

S. epidermidis 35984 = assay: MIC; assay type: cell-based; conditions: Staphylococcus epidermidis; S. epidermidis 35984; read-out: MIC
Method: as §1, §2

E. faecalis 161651 = assay: MIC; assay type: cell-based; conditions: Enterococcus faecalis; E. faecalis 161651; read-out: MIC
Method: as §1, §2

E. faecium 145494 = assay: MIC; assay type: cell-based; conditions: Enterococcus faecium; E. faecium 145494; read-out: MIC
Method: as §1, §2

S. pneumoniae 149389 = assay: MIC; assay type: cell-based; conditions: Streptococcus pneumoniae; S. pneumoniae 149389; read-out: MIC
Method: as §1, §2

E. faecalis 29212 = assay: MIC; assay type: cell-based; conditions: Enterococcus faecalis; E. faecalis 29212; read-out: MIC
Method: as §1, §2

Mammalian Cell Toxicity [1] = assay type: cell-based; conditions: mouse, 3T3 cells
[2] = system: S. aureus specific Arg ASL (anticodon stem loop) RNA oligomer interaction with programmed ribosomes; assay: Fluorescence polarization assay of Arg ASL / programmed ribosome complex (HTS and dose response); assay type: binding, S. aureus Arg ASL; E. coli 70S ribosomes; conditions: 6 pt dose response, fluorescence polarization after 4 hours at 25° C., corrected for auto-fluorescence
Excerpt: The assay requires the following materials: • Ribosomes—isolated from E. coli or S. aureus • fMet tRNA (Sigma or Chemical Block, Moscow) • mRNA (including the S-D sequence, the “box” sequence, the codon for methionine, and the codon for arginine that is specific for S. aureus, AGA, optionally with additional base pairs to the left of the S-D sequence and/or to the right of the codon for arginine) • Fluorescently labeled Arg ASL oliogomer • Buffer—HAM20,β • 384 well high binding micro titer plates (Matrix Technologies #4319, sold by Fischer Scientific as cat #50823855), or other appropriate plates for use in high throughput screening • Filtration (Sartorius Stedium 100 Kdalton VC 1042) or centrifugation for complex purification • EDTA—negative control (binding antagonist) • Neomycin—A-site binding enhancer (binding agonist)
A ribosome complex was prepared using the above materials and then purified prior to use in the assay. The prepared complex can be stored in concentrated form at −80° C. The complexes were diluted in buffer and dispensed onto plates. […] Fluorescence polarization was measured at approximately 4 hours after dispensing onto the micro-titer plates.
ASL^Arg was first heated for 2 min at 90° C. in water, after addition of 1/10 V of 10× buffer incubation continued on ice for at least 10 min. Prior to complex formation 70S ribosomes and tRNA were reactivated in buffer for 5 min at 45° C. followed by 10 min at 37° C.; mRNA was heated in buffer at 37° C. for 5 min. • (1000 μl×(2 μM E. coli 70S ribosomes+10 μM mRNA-Arg+4 μM tRNA^fmet)/HAM20,β→30 min @ 37° C.,+1000 μl×(0.2 μM neomycin+[…]))→20 min @ 37° C., overnight on ice • Final complex: (2000 pm P+2000 pm ASL)/2 ml=1 μM P+1 μM ASL HAM20,β:
Preparation of Complexes: The purified complex was diluted in ice cold HAM20,β such that the total fluorescence was approximately 2,000,000 units per 5 μL.
20 μl of the diluted complex was added to all 384 well plates (except for blank wells, which received 20 μL of HAM20 only, without complex) using Multidrop dispenser after which the plates were incubated at 25° C. for 4 hours (target 4.5 hours for middle of batch). Plates were then analyzed for fluorescence polarization in Analyst HT fluorescence plate reader and the following instrument settings:
The parallel and perpendicular fluorescence values of experimental wells were automatically corrected for the corresponding values obtained from the blank wells. The fluorescence polarization was calculated as following: P=(I−Ip)/(I+Ip), wherein Ip—is perpendicular fluorescence and I—is parallel fluorescence.
The percent of effect of experimental compounds was calculated as following: %-Inh=(P0−Pc)/(P0−P100)*100, wherein P0—is average polarization in 0%—inhibition control wells, P100—is average polarization in 100%—inhibition control wells, and Pc—is polarization in compound well.
The 3 sigma HTS hits were cherry picked and retested in 6 pt dose response format, using 3× serial dilution and the top nominal concentration of 100 uM.
The compounds were serially diluted in 10% DMSO and plated into 384 well plates (in a volume of 5 μL) to achieve the nominal final concentration raging from 100 μM to 0.4 μM. The plates received 20 μl of the diluted complex following incubation at 25° C. for 4 hours. Plates were then analyzed for fluorescence polarization as described above (see HTS section).
In parallel, the compounds were tested for auto-fluorescence. To this end, the compounds were plated (using the same dilution protocol) into 384 well plates. The plates received 20 μL of the HAM20 assay buffer only (without complex). The plates were incubated for 4 hrs and then were analyzed for fluorescence polarization as described above.

K. pneumoniae 700603 = assay: MIC; assay type: cell-based; conditions: Klebsiella pneumoniae; K. pneumoniae 700603; read-out: MIC
E. coli 25922 = assay: MIC; assay type: cell-based; conditions: Escherichia coli; E. coli 25922; read-out: MIC
[3] = system: SA 22 (Staphylococcus aureus 22); assay: MIC; assay type: cell-based; conditions: SA 22, read-out: MIC
Method: (§3) The strains included Staphylococcus aureus, Methicillin Resistant (ATCC 33591), Methicillin-Resistant Staphylococcus aureus USA300, Staphylococcus aureus 158, Staphylococcus aureus 22, Staphylococcus aureus 2, Staphylococcus aureus (ATCC 29213), and Staphylococcus aureus 182.
as §2

[4] = system: SA 2 (Staphylococcus aureus 2); assay: MIC; assay type: cell-based; conditions: SA 2, read-out: MIC
Method: as §3, §2

[5] = system: SA 158 (Staphylococcus aureus 158); assay: MIC; assay type: cell-based; conditions: SA 158, read-out: MIC
Method: as §3, §2

[6] = system: SA 29213 (Staphylococcus aureus (ATCC 29213)); assay: MIC; assay type: cell-based; conditions: ATCC29213, SA 29213, read-out: MIC
Method: as §3, §2

[7] = system: SA 33591 (Staphylococcus aureus, Methicillin Resistant (ATCC 33591)); assay: MIC; assay type: cell-based; conditions: ATCC33591, SA 33591, read-out: MIC
Method: as §3, §2

[8] = system: SA USA 300 (Methicillin-Resistant Staphylococcus aureus USA300); assay: MIC; assay type: cell-based; conditions: SA USA 300, read-out: MIC
Method: as §3, §2

[9] = system: SA 182 (Staphylococcus aureus 182); assay: MIC; assay type: cell-based; conditions: SA 182, read-out: MIC
Method: as §3, §2

Mammalian Cell Toxicity [10] = assay type: cell-based; conditions: human, MRC5 cells
K. pneumoniae UMM = assay: MIC; assay type: cell-based; conditions: Klebsiella pneumoniae; K. pneumoniae UMM; read-out: MIC
E. coli ESBL 4 = assay: MIC; assay type: cell-based; conditions: Escherichia coli, ESBL4; E. coli ESBL 4; read-out: MIC

| SMILES | MIC (S. epidermidis MRSE 01) [µg/mL] | MIC (E. faecium 134529) [µg/mL] | MIC (S. pneumoniae 49619) [µg/mL] | MIC (S. epidermidis 35984) [µg/mL] | MIC (E. faecalis 161651) [µg/mL] | MIC (E. faecium 145494) [µg/mL] | MIC (S. pneumoniae 149389) [µg/mL] | MIC (E. faecalis 29212) [µg/mL] | CC50 (Mammalian Cell Toxicity [1]) [µg/mL] | MIC (K. pneumoniae 700603) [µg/mL] | MIC (E. coli 25922) [µg/mL] | MIC [3] [µg/mL] | MIC [4] [µg/mL] | MIC [5] [µg/mL] | MIC [6] [µg/mL] | MIC [7] [µg/mL] | MIC [8] [µg/mL] | MIC [9] [µg/mL] | CC50 (Mammalian Cell Toxicity [10]) [µg/mL] | MIC (K. pneumoniae UMM) [µg/mL] | other results |
| --- | --- | --- | --- | --- | --- | --- | --- | --- | --- | --- | --- | --- | --- | --- | --- | --- | --- | --- | --- | --- | --- |
| Oc1ccccc1N=Cc1c(O)c(Br)cc2oc3c(c12)CCCC3 [Compound 136, 3-bromo-1-{[(2-hydroxyphenyl)imino]methyl}-6,7,8,9-tetrahydrodibenzo[b,d]furan-2-ol] | 8 (≈ 20.7 µM) | 64 (≈ 166 µM) | > 128 | 64 (≈ 166 µM) | 128 (≈ 331 µM) | > 128 | > 128 | 128 (≈ 331 µM) | 2.3 (≈ 5.95 µM) | > 128 | > 128 | 16 (≈ 41.4 µM) | 16 (≈ 41.4 µM) | 32 (≈ 82.8 µM) | 32 (≈ 82.8 µM) | 32 (≈ 82.8 µM) | 128 (≈ 331 µM) | > 128 | 6.8 (≈ 17.6 µM) | > 128 | IC50 ([2]; read-out: IC50): 80 µM; MIC (E. coli ESBL 4): > 128 µg/mL |
| O=C(O)C(c1ccccc1)N1C(=O)C(=Cc2c[nH]c3ccccc23)SC1=S (stereo not shown) [Compound 537, [5-(1H-indol-3-ylmethylene)-4-oxo-2-thioxo-1,3-thiazolidin-3-yl](phenyl)acetic acid] | 128 (≈ 324 µM) | 128 (≈ 324 µM) | 32 (≈ 81.1 µM) | 128 (≈ 324 µM) | 128 (≈ 324 µM) | > 128 | 64 (≈ 162 µM) | 128 (≈ 324 µM) | 20 to 64 (≈ 50.7 to 162 µM) | > 128 | > 128 | 64 (≈ 162 µM) | 128 (≈ 324 µM) | 64 (≈ 162 µM) | 64 (≈ 162 µM) | 64 (≈ 162 µM) | 64 (≈ 162 µM) | 64 (≈ 162 µM) | 38 (≈ 96.3 µM) | > 128 | IC50 [2]: agonist; MIC (E. coli ESBL 4): > 128 µg/mL |
| CN1CCN(c2nc(C=Cc3ccccc3)nc3ccccc23)CC1 [Compound #096, 4-(4-methyl-1-piperazinyl)-2-(2-phenylvinyl)quinazoline] | 128 (≈ 387 µM) | 64 (≈ 194 µM) | 64 (≈ 194 µM) | > 128 | 128 (≈ 387 µM) | 128 (≈ 387 µM) | 64 (≈ 194 µM) | 128 (≈ 387 µM) | 51.5 (≈ 156 µM) | > 128 | > 128 | 64 (≈ 194 µM) | 32 (≈ 96.8 µM) | 128 (≈ 387 µM) | 64 (≈ 194 µM) | > 128 | 64 (≈ 194 µM) | 128 (≈ 387 µM) | 62 (≈ 188 µM) | > 128 | IC50 ([2]; read-out: IC50): 91 µM; MIC (E. coli ESBL 4): > 128 µg/mL |
| COc1ccc2c(c1)c(=O)oc1c(C)c(OC(C(=O)O)c3ccccc3)ccc12 (stereo not shown) [Compound #211, [(8-methoxy-4-methyl-6-oxo-6H-benzo[c]chromen-3-yl)oxy](phenyl)acetic acid] | > 128 | > 128 | 32 (≈ 82 µM) | > 128 | 128 (≈ 328 µM) | > 128 | 128 (≈ 328 µM) | 128 (≈ 328 µM) | 28 (≈ 71.7 µM) | > 128 | > 128 | 128 (≈ 328 µM) | 128 (≈ 328 µM) | 128 (≈ 328 µM) | 128 (≈ 328 µM) | > 128 | 128 (≈ 328 µM) | 128 (≈ 328 µM) | 26 (≈ 66.6 µM) | > 128 | IC50 [2]: agonist; MIC (E. coli ESBL 4): > 128 µg/mL |
